Reference: patent US20200215074A1, “Method of Treatment of Cancer” (CIPLA LIMITED, priority 2017, published 2020)

Experiments:
PAR-4 [1] = assay: PAR-4 inducing activity, general statement of the inventors; type: cell-based, human and mouse; conditions: summary statement, no test details
GRP-78 = assay: In-vitro GRP-78 induction in human ovarian and renal cancer cell lines (Western blot); type: cell-based; conditions: 25 μM, 18-21 h
Protocol: Human ovarian cancer cell line SKOV-3 and renal cancer cell line 786-0 were harvested from exponential phase cultures. After a 24 h recovery period to allow the cells to resume exponential growth the cells were treated with 25 μM of Mefloquine followed by further 18-21 h of incubation. Induction of GRP-78 expression was checked in the cell lysate by subjecting the samples to Western blot analysis with antibodies specific for GRP-78.
Human ovarian cancer cell line SKOV-3 and renal cancer cell line 786-0 were harvested from exponential phase cultures. After a 24 h recovery period to allow the cells to resume exponential growth the cells were treated with 25 μM of Mebendazole followed by further 18-21 h of incubation. Induction of GRP-78 expression was checked in the cell lysate by subjecting the samples to Western blot analysis with antibodies specific for GRP-78.
Human ovarian cancer cell line SKOV-3 and renal cancer cell line 786-0 were harvested from exponential phase cultures. After a 24 h recovery period to allow the cells to resume exponential growth the cells were treated with 25 μM of Tafenoquine followed by further 18-21 h of incubation. Induction of GRP-78 expression was checked in the cell lysate by subjecting the samples to Western blot analysis with antibodies specific for GRP-78.

PAR-4 [2] = assay: In-vitro PAR-4 induction in mouse embryonic fibroblast cells (Western blot); type: cell-based; conditions: for PAR-4 secretion in the cell supernatant: 18-21 h incubation, Western blot
Protocol: Mouse embryonic fibroblast cells were harvested from exponential phase cultures. After a 24 h recovery period to allow the cells to resume exponential growth the cells were treated with […] followed by further 18-21 h of incubation. […] The samples were also subjected to SDS/PAGE and Coomassie blue staining to determine albumin levels in serum from the Conditioned Medium (CM) as another loading control.
Mouse embryonic fibroblast cells were harvested from exponential phase cultures. After a 24 h recovery period to allow the cells to resume exponential growth the cells were treated with […] followed by further 18-21 h of incubation. […] The samples were also subjected to SDS/PAGE and Coomassie blue staining to determine albumin levels in serum from the CM as another loading control.
Mouse embryonic fibroblast were harvested from exponential phase cultures. After a 24 h recovery period to allow the cells to resume exponential growth the cells were treated with 25 µM of Meloquine followed by further 18-21 h of incubation. […] The samples were also subjected to SDS/PAGE and Coomassie blue staining to determine albumin levels in serum from the cell supernatant as another loading control.
Mouse embryonic fibroblast cells were harvested from exponential phase cultures. After a 24 h recovery period to allow the cells to resume exponential growth the cells were treated with […] followed by further 18-21 h of incubation. […] The samples were also subjected to SDS/PAGE and Coomassie blue staining to determine albumin levels in serum from the CM as another loading control.
Mouse embryonic fibroblast were harvested from exponential phase cultures. After a 24 h recovery period to allow the cells to resume exponential growth the cells were treated with 25 μM of Mebendazole followed by further 18-21 h of incubation. […] The samples were also subjected to SDS/PAGE and Coomassie blue staining to determine albumin levels in serum from the cell supernatant as another loading control.
Mouse embryonic fibroblast were harvested from exponential phase cultures. After a 24 h recovery period to allow the cells to resume exponential growth the cells were treated with 25 µM of Tafenoquine followed by further 18-21 h of incubation. […] The samples were also subjected to SDS/PAGE and Coomassie blue staining to determine albumin levels in serum from the cell supernatant as another loading control.
The experiment was conducted as per method set in an Example 1.

PAR-4 [3] = assay: In-vivo PAR-4 induction in C57/BL6 mice (systemic serum PAR-4); parameters: species or system mouse; conditions: blood 24 hrs later
Protocol: Immunocompetent mice were orally administered with 10 mg/kg and 51.2 mg/kg body weight of Mefloquine or vehicle for 3 consecutive days followed by collection of blood 24 hrs later, serum separation and testing for systemic levels of PAR-4. Immunocompetent mice were orally administered with 1.5 mg/kg body weight of Narasin or vehicle for 3 consecutive days followed by collection of blood 24 hrs later, serum separation and testing for systemic levels of PAR-4.

PAR-4 [4] = conditions: literature (Burikhanov et al. 2014); cited from earlier work
PAR-4 [5] = conditions: at micromolar levels; cited from earlier work
metastatic lung tumors = conditions: injected in mice; literature (Zhao et al. 2011); cited from earlier work
[6] = SKOV-3 human ovarian cancer cell line
[7] = 25 μM (25 M [sic] for Mefloquine and Tafenoquine)

For `OC(c1cc(C(F)(F)F)nc2c(C(F)(F)F)cccc12)C1CCCCN1` (stereo not shown) [Mefloquine], the PAR-4 inducing activity (PAR-4 [1]) was “found to possess PAR-4 inducing activity”, the “GRP-78 expression in cell lysate” value (GRP-78; 786-0 renal cancer cell line) was “induced GRP-78 expression” and the “GRP-78 expression in cell lysate” value (GRP-78; [6]) was “induced GRP-78 expression”. The “PAR-4 secretion in the cell supernatant” value (PAR-4 [2]; [7]) was “able to induce robust PAR-4 secretion” and the “Elevation of PAR-4 in mouse serum relative to vehicle” value (PAR-4 [3]; oral 51.2 mg/kg for 3 consecutive days) was “induced robust elevation of PAR-4”.

With `Cc1cccc(C)c1OCC(=O)N[C@@H](Cc1ccccc1)[C@@H](O)C[C@H](Cc1ccccc1)NC(=O)[C@H](C(C)C)N1CCCNC1=O` [Lopinavir] the PAR-4 inducing activity (PAR-4 [1]) was “found to possess PAR-4 inducing activity” and the “PAR-4 secretion in the cell supernatant” value (PAR-4 [2]; test concentration not given) was “able to induce robust PAR-4 secretion”.

For `CN(C)c1ccc2cc(-c3ccccc3F)c(N)nc2c1` [Arylquin-1], the “Secretion of PAR-4 from normal cells in mice” value (“Secretion … in mice” for short) (PAR-4 [4]) is given as “can increase secretion of PAR-4”.

For `C[C@@H]1CN(c2c(F)c(N)c3c(=O)c(C(=O)O)cn(C4CC4)c3c2F)C[C@H](C)N1` [Sparfloxacin], the PAR-4 inducing activity (PAR-4 [1]) was “found to possess PAR-4 inducing activity” and the “PAR-4 secretion in the cell supernatant” value (PAR-4 [2]; test concentration not given) was “able to induce robust PAR-4 secretion”.

With `CCn1cc(C(=O)O)c(=O)c2cnc(N3CCNCC3)nc21` [Pipemidic Acid] the PAR-4 inducing activity (PAR-4 [1]) was “found to possess PAR-4 inducing activity” and the “PAR-4 secretion in the cell supernatant” value (PAR-4 [2]; test concentration not given) was “able to induce robust PAR-4 secretion”.

For `COc1ccc(-c2ccc3cc(C(=O)O)ccc3c2)cc1C12CC3CC(CC(C3)C1)C2` [Adapalene], the PAR-4 inducing activity (PAR-4 [1]) was “found to possess PAR-4 inducing activity”.

In the case of `CC(C)N1CCN(c2ccc(OCC3COC(Cn4cncn4)(c4ccc(Cl)cc4Cl)O3)cc2)CC1` (stereo not shown) [Terconazole], the PAR-4 inducing activity (PAR-4 [1]) is reported as “found to possess PAR-4 inducing activity”, the “Dose dependence of PAR-4 induction” value (PAR-4 [2]) is reported as “in a dose dependent manner” and the “PAR-4 secretion in the cell supernatant” value (PAR-4 [2]; test concentration not given) is reported as “able to induce robust PAR-4 secretion”. The “Induction of PAR-4 in cell lysate” value (PAR-4 [2]) was “Induction of PAR-4”.

In the case of `CCn1cc(C(=O)O)c(=O)c2ccc(C)nc21` [Nalidixic Acid], the PAR-4 inducing activity (PAR-4 [1]) is reported as “found to possess PAR-4 inducing activity” and the “PAR-4 secretion in the cell supernatant” value (PAR-4 [2]; test concentration not given) is reported as “able to induce robust PAR-4 secretion”.

With `CC[C@@H](C(=O)O)[C@@H]1O[C@@H]([C@@H](C)[C@H](O)[C@H](C)C(=O)[C@H](CC)[C@H]2O[C@]3(C=C[C@@H](O)[C@]4(CC[C@@](C)([C@H]5CC[C@](O)(CC)[C@H](C)O5)O4)O3)[C@H](C)C[C@@H]2C)[C@@H](C)C[C@@H]1C` [Narasin] the PAR-4 inducing activity (PAR-4 [1]) was “found to possess PAR-4 inducing activity”, the “PAR-4 secretion in the cell supernatant” value (PAR-4 [2]; test concentration not given) was “able to induce robust PAR-4 secretion” and the “Elevation of PAR-4 in mouse serum relative to vehicle” value (PAR-4 [3]; oral 1.5 mg/kg for 3 consecutive days) was “induced robust elevation of PAR-4”.

For `COC(=O)Nc1nc2ccc(C(=O)c3ccccc3)cc2[nH]1` [Mebendazole], the PAR-4 inducing activity (PAR-4 [1]) was “found to possess PAR-4 inducing activity”, the “GRP-78 expression in cell lysate” value (GRP-78; 786-0 renal cancer cell line) was “induced GRP-78 expression” and the “GRP-78 expression in cell lysate” value (GRP-78; [6]) was “induced GRP-78 expression”. The “PAR-4 secretion in the cell supernatant” value (PAR-4 [2]; [7]) was “able to induce robust PAR-4 secretion” and the “Induction of PAR-4 in cell lysate” value (PAR-4 [2]) was “Induction of PAR-4”.

In the case of `O=C(Nc1cc(Cl)cc2c1[nH]c1cnccc12)c1cccnc1` [PS-1145], the “Secretion … in mice” value (PAR-4 [4]) is given as “can increase secretion of PAR-4”.

For `COc1ccc(C2=N[C@@H](c3ccc(Cl)cc3)[C@@H](c3ccc(Cl)cc3)N2C(=O)N2CCNC(=O)C2)c(OC(C)C)c1` [Nutlin-3a], the “Secretion … in mice” value (PAR-4 [4]) is given as “can increase secretion of PAR-4” and the “PAR-4 secretion in MEF cells” value (PAR-4 [5]) is given as “stimulated PAR-4 secretion”.

In the case of `COc1cc(C)c2c(Oc3cccc(C(F)(F)F)c3)c(OC)cc(NC(C)CCCN)c2n1` (stereo not shown) [Tafenoquine], the PAR-4 inducing activity (PAR-4 [1]) is reported as “found to possess PAR-4 inducing activity”, the “GRP-78 expression in cell lysate” value (GRP-78; 786-0 renal cancer cell line) is reported as “induced GRP-78 expression” and the “GRP-78 expression in cell lysate” value (GRP-78; [6]) is reported as “induced GRP-78 expression”. The “Dose dependence of PAR-4 induction” value (PAR-4 [2]) was “Dose dependent induction of PAR-4”, the “PAR-4 secretion in the cell supernatant” value (PAR-4 [2]; [7]) was “able to induce robust PAR-4 secretion” and the “Induction of PAR-4 in cell lysate” value (PAR-4 [2]) was “Induction of PAR-4”.

With `COc1ccc2nc3cc(Cl)ccc3c(Nc3cc(CN4CCCC4)c(O)c(CN4CCCC4)c3)c2n1` [Pyronaridine] the PAR-4 inducing activity (PAR-4 [1]) was “found to possess PAR-4 inducing activity”, the “Dose dependence of PAR-4 induction” value (PAR-4 [2]) was “in a dose dependent manner” and the “PAR-4 secretion in the cell supernatant” value (PAR-4 [2]; test concentration not given) was “able to induce robust PAR-4 secretion”.

B1: recombinant PAR-4: recombinant PAR-4 protein injected in mice to elevate extracellular PAR-4 (protein, UniProt Q96IZ0 1-340, looked up)
PRKC apoptosis WT1 regulator …: MATGGYRTSSGLGGSTTDFLEEWKAKREKMRAKQNPPGPAPPGGGSSDAAGKPPAGALGTPAAAAANELNNNLPGGAPAAPAVPGPGGVNCAVGSAMLTRAAPGPRRSEDEPPAASASAAPPPQRDEEEPDGVPEKGKSSGPSARKGKGQIEKRKLREKRRSTGVVNIPAAECLDEYEDDEAGQKERKREDAITQQNTIQNEAVNLLDPGSSYLLQEPPRTVSGRYKSTTSVSEEDVSSRYSRTDRSGFPRYNRDANVSGTLVSSSTLEKKIEDLEKEVVRERQENLRLVRLMQDKEEMIGKLKEEIDLLNRDLDDIEDENEQLKQENKTLLKVVGQLTR
For B1, the “Effect on metastatic lung tumors” value (metastatic lung tumors) is listed as “cause inhibition of metastatic lung tumors”.
